Test results as given in patent US10865208B2, “ATG7 inhibitors and the uses thereof” (Millennium Pharmaceuticals, Inc., priority 2016, dated 2020).

Target: recombinant human His-ATG7 enzyme (Homo sapiens (Human), UniProt O95352)
Test: ATG7 Enzyme Assay (HTRF/FRET, ATG3-GST and Flag-Gabarap)
Assay type: biochemical
Settings: for inhibition at 0.111 µM: Concentration 0.111 μM
Summary of the method: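 HTRF read-out after 2 h at 24° C, using Eu-cryptate anti-Flag and XL-APC anti-GST antibodies in an EDTA stop buffer. The preceding 105 min, 24° C reaction (pH 7.5) held 10 μM ATP, 5 nM each ATG3-GST and Flag-Gabarap, and 0.15 nM human His-ATG7. Values are IC50 or percent inhibition at one concentration.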

Chain of recombinant human His-ATG7 enzyme (O95352 whole entry): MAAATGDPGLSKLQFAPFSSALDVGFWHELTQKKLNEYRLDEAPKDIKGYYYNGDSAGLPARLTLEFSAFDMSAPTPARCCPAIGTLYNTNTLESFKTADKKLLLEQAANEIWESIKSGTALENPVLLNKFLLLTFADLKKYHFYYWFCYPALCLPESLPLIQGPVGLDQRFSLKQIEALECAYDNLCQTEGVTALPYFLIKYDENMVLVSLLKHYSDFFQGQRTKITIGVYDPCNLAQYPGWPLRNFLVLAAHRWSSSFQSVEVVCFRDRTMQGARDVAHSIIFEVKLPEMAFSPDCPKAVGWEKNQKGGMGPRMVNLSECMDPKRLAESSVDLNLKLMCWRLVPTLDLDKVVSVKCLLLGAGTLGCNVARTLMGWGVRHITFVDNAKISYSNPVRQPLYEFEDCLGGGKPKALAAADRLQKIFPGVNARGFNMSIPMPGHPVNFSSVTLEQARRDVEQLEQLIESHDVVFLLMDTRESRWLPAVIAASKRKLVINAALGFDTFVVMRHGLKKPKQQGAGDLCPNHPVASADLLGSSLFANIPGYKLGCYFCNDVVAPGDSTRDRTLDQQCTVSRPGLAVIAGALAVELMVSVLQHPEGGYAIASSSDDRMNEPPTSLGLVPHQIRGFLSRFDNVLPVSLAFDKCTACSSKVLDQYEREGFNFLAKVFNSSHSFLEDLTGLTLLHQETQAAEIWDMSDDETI

SMILES | IC50 | inhibition at 0.111 µM (read-out: Percent Inhibition) | inhibition at 0.123 µM (Concentration 0.123 μM, read-out: Percent Inhibition)
Nc1ncnc2c1c(Sc1ccc3ccccc3c1)nn2[C@H]1C[C@H](O)[C@@H](COS(N)(=O)=O)O1 [Compound I-166, {(2R,3S,5R)-5-[4-amino-3-(2-naphthylsulfanyl)-1H-pyrazolo[3,4-d]pyrimidin-1-yl]-3-hydroxytetrahydrofuran-2-yl}methyl sulfamate] | 0.1 to 0.5 µM | 50% | –
Nc1ncnc2c1c(Sc1c[nH]c3ccccc13)nn2[C@H]1C[C@H](O)[C@@H](COS(N)(=O)=O)O1 [Compound I-170, {(2R,3S,5R)-5-[4-amino-3-(1H-indol-3-ylsulfanyl)-1H-pyrazolo[3,4-d]pyrimidin-1-yl]-3-hydroxytetrahydrofuran-2-yl}methyl sulfamate] | 0.1 to 0.5 µM | 50% | –
Nc1ncnc2c1c(C(F)(F)F)nn2[C@H]1C[C@H](O)[C@@H](COS(N)(=O)=O)O1 [Compound I-171, {(2R,3S,5R)-5-[4-amino-3-(trifluoromethyl)-1H-pyrazolo[3,4-d]pyrimidin-1-yl]-3-hydroxytetrahydrofuran-2-yl}methyl Sulfamate] | 0.1 to 0.5 µM | 48% | –
Nc1ncnc2c1c(Sc1ccc3c(c1)OCO3)nn2[C@H]1C[C@H](O)[C@@H](COS(N)(=O)=O)O1 [Compound I-175, {(2R,3S,5R)-5-[4-amino-3-(1,3-benzodioxol-5-ylsulfanyl)-1H-pyrazolo[3,4-d]pyrimidin-1-yl]-3-hydroxytetrahydrofuran-2-yl}methyl sulfamate] | 0.05 to 0.1 µM | 66% | –
Cc1ccccc1Sc1nn([C@H]2C[C@H](O)[C@@H](COS(N)(=O)=O)O2)c2ncnc(N)c12 [Compound I-176, [(2R,3S,5R)-5-{4-amino-3-[(2-methylphenyl)sulfanyl]-1H-pyrazolo[3,4-d]pyrimidin-1-yl}-3-hydroxytetrahydrofuran-2-yl]methyl sulfamate] | 0.1 to 0.5 µM | 26% | –
Nc1ncnc2c1c(Sc1cccc(Cl)c1)nn2[C@H]1C[C@H](O)[C@@H](COS(N)(=O)=O)O1 [Compound I-179, [(2R,3S,5R)-5-{4-amino-3-[(3-chlorophenyl)sulfanyl]-1H-pyrazolo[3,4-d]pyrimidin-1-yl}-3-hydroxytetrahydrofuran-2-yl]methyl sulfamate] | 0.1 to 0.5 µM | 50% | –
CN(C)C(=O)CSc1nn([C@H]2C[C@H](O)[C@@H](COS(N)(=O)=O)O2)c2ncnc(N)c12 [Compound I-180, [(2R,3S,5R)-5-(4-amino-3-{[2-(dimethylamino)-2-oxoethyl]sulfanyl}-1H-pyrazolo[3,4-d]pyrimidin-1-yl)-3-hydroxytetrahydrofuran-2-yl]methyl sulfamate] | 0.1 to 0.5 µM | 29% | –
Nc1ncnc2c1c(Sc1ccccc1F)nn2[C@H]1C[C@H](O)[C@@H](COS(N)(=O)=O)O1 [Compound I-182, [(2R,3S,5R)-5-{4-amino-3-[(2-fluorophenyl)sulfanyl]-1H-pyrazolo[3,4-d]pyrimidin-1-yl}-3-hydroxytetrahydrofuran-2-yl]methyl sulfamate] | 0.05 to 0.1 µM | 66% | –
Nc1ncnc2c1c(Sc1ccc3ccccc3n1)nn2[C@H]1C[C@H](O)[C@@H](COS(N)(=O)=O)O1 [Compound I-183, {(2R,3S,5R)-5-[4-amino-3-(quinolin-2-ylsulfanyl)-1H-pyrazolo[3,4-d]pyrimidin-1-yl]-3-hydroxytetrahydrofuran-2-yl}methyl sulfamate] | 0.1 to 0.5 µM | 28% | –
CC(C)Oc1ccc(Sc2nn([C@H]3C[C@H](O)[C@@H](COS(N)(=O)=O)O3)c3ncnc(N)c23)cc1 [Compound I-184, [(2R,3S,5R)-5-{4-amino-3-[(4-isopropoxyphenyl)sulfanyl]-1H-pyrazolo[3,4-d]pyrimidin-1-yl}-3-hydroxytetrahydrofuran-2-yl]methyl sulfamate] | 0.05 to 0.1 µM | 64% | –
CN1C(=O)Cc2cc(Sc3nn([C@H]4C[C@H](O)[C@@H](COS(N)(=O)=O)O4)c4ncnc(N)c34)ccc21 [Compound I-185, [(2R,3S,5R)-5-{4-amino-3-[(1-methyl-2-oxo-2,3-dihydro-1H-indol-5-yl)sulfanyl]-1H-pyrazolo[3,4-d]pyrimidin-1-yl}-3-hydroxytetrahydrofuran-2-yl]methyl sulfamate] | 0.05 to 0.1 µM | 56% | –
Nc1ncnc2c1c(Sc1ccc(F)cc1)nn2[C@H]1C[C@H](O)[C@@H](COS(N)(=O)=O)O1 [Compound I-187, [(2R,3S,5R)-5-{4-amino-3-[(4-fluorophenyl)sulfanyl]-1H-pyrazolo[3,4-d]pyrimidin-1-yl}-3-hydroxytetrahydrofuran-2-yl]methyl sulfamate] | 0.05 to 0.1 µM | 56% | –
N#CCSc1nn([C@H]2C[C@H](O)[C@@H](COS(N)(=O)=O)O2)c2ncnc(N)c12 [Compound I-188, [(2R,3S,5R)-5-{4-amino-3-[(cyanomethyl)sulfanyl]-1H-pyrazolo[3,4-d]pyrimidin-1-yl}-3-hydroxytetrahydrofuran-2-yl]methyl sulfamate] | 0.1 to 0.5 µM | 37% | –
Nc1ncnc2c1c(Sc1ccc(Cl)cn1)nn2[C@H]1C[C@H](O)[C@@H](COS(N)(=O)=O)O1 [Compound I-189, [(2R,3S,5R)-5-{4-amino-3-[(5-chloropyridin-2-yl)sulfanyl]-1H-pyrazolo[3,4-d]pyrimidin-1-yl}-3-hydroxytetrahydrofuran-2-yl]methyl sulfamate] | 0.05 to 0.1 µM | 60% | –

The remaining lines, values ahead:

IC50 | inhibition at 0.111 µM (read-out: Percent Inhibition) | inhibition at 0.123 µM (Concentration 0.123 μM, read-out: Percent Inhibition) | SMILES
0.05 to 0.1 µM | 62% | – | Nc1ncnc2c1c(SCC(F)F)nn2[C@H]1C[C@H](O)[C@@H](COS(N)(=O)=O)O1 [Compound I-165, [(2R,3S,5R)-5-{4-amino-3-[(2,2-difluoroethyl)sulfanyl]-1H-pyrazolo[3,4-d]pyrimidin-1-yl}-3-hydroxytetrahydrofuran-2-yl]methyl sulfamate]
0.05 to 0.1 µM | 68% | – | Nc1ncnc2c1c(SC1CC1)nn2[C@H]1C[C@H](O)[C@@H](COS(N)(=O)=O)O1 [Compound I-167, {(2R,3S,5R)-5-[4-amino-3-(cyclopropylsulfanyl)-1H-pyrazolo[3,4-d]pyrimidin-1-yl]-3-hydroxytetrahydrofuran-2-yl}methyl sulfamate]
0.02 to 0.05 µM | 77% | – | Nc1ncnc2c1c(Sc1ccc3c(c1)OCC3)nn2[C@H]1C[C@H](O)[C@@H](COS(N)(=O)=O)O1 [Compound I-168, {(2R,3S,5R)-5-[4-amino-3-(2,3-dihydro-1-benzofuran-6-ylsulfanyl)-1H-pyrazolo[3,4-d]pyrimidin-1-yl]-3-hydroxytetrahydrofuran-2-yl}methyl sulfamate]
0.05 to 0.1 µM | 57% | – | Nc1ncnc2c1c(SC(F)F)nn2[C@H]1C[C@H](O)[C@@H](COS(N)(=O)=O)O1 [Compound I-169, [(2R,3S,5R)-5-{4-amino-3-[(difluoromethyl)sulfanyl]-1H-pyrazolo[3,4-d]pyrimidin-1-yl}-3-hydroxytetrahydrofuran-2-yl]methyl sulfamate]
0.05 to 0.1 µM | 68% | – | CCSc1nn([C@H]2C[C@H](O)[C@@H](COS(N)(=O)=O)O2)c2ncnc(N)c12 [Compound I-172, {(2R,3S,5R)-5-[4-amino-3-(ethylsulfanyl)-1H-pyrazolo[3,4-d]pyrimidin-1-yl]-3-hydroxytetrahydrofuran-2-yl}methyl Sulfamate]
0.02 to 0.05 µM | 81% | – | COc1ccc(F)c(Sc2nn([C@H]3C[C@H](O)[C@@H](COS(N)(=O)=O)O3)c3ncnc(N)c23)c1 [Compound I-173, [(2R,3S,5R)-5-{4-amino-3-[(2-fluoro-5-methoxyphenyl)sulfanyl]-1H-pyrazolo[3,4-d]pyrimidin-1-yl}-3-hydroxytetrahydrofuran-2-yl]methyl sulfamate]
0.02 to 0.05 µM | 73% | – | Nc1ncnc2c1c(Sc1nccs1)nn2[C@H]1C[C@H](O)[C@@H](COS(N)(=O)=O)O1 [Compound I-174, {(2R,3S,5R)-5-[4-amino-3-(1,3-thiazol-2-ylsulfanyl)-1H-pyrazolo[3,4-d]pyrimidin-1-yl]-3-hydroxytetrahydrofuran-2-yl}methyl sulfamate]
0.02 to 0.05 µM | 70% | – | CC(C)(C)Sc1nn([C@H]2C[C@H](O)[C@@H](COS(N)(=O)=O)O2)c2ncnc(N)c12 [Compound I-177, {(2R,3S,5R)-5-[4-amino-3-(tert-butylsulfanyl)-1H-pyrazolo[3,4-d]pyrimidin-1-yl]-3-hydroxytetrahydrofuran-2-yl}methyl sulfamate]
0.02 to 0.05 µM | 74% | – | COc1ccc(Sc2nn([C@H]3C[C@H](O)[C@@H](COS(N)(=O)=O)O3)c3ncnc(N)c23)c(F)c1 [Compound I-178, [(2R,3S,5R)-5-{4-amino-3-[(2-fluoro-4-methoxyphenyl)sulfanyl]-1H-pyrazolo[3,4-d]pyrimidin-1-yl}-3-hydroxytetrahydrofuran-2-yl]methyl sulfamate]
0.02 to 0.05 µM | – | 81% | CC(C)Sc1nn([C@H]2C[C@H](O)[C@@H](COS(N)(=O)=O)O2)c2ncnc(N)c12 [Compound I-181, {(2R,3S,5R)-5-[4-amino-3-(isopropylsulfanyl)-1H-pyrazolo[3,4-d]pyrimidin-1-yl]-3-hydroxytetrahydrofuran-2-yl}methyl Sulfamate]
0.02 to 0.05 µM | 74% | – | Nc1ncnc2c1c(Sc1ccc3c(c1)CCO3)nn2[C@H]1C[C@H](O)[C@@H](COS(N)(=O)=O)O1 [Compound I-186, {(2R,3S,5R)-5-[4-amino-3-(2,3-dihydro-1-benzofuran-5-ylsulfanyl)-1H-pyrazolo[3,4-d]pyrimidin-1-yl]-3-hydroxytetrahydrofuran-2-yl}methyl sulfamate]
